Values of other authors in patent US10828311B2, “Controlled release compositions and their methods of use” (BAYER NEW ZEALAND LTD, priority 2012, dated 2020).
Values after ≈ are worked out from the molar mass of the structure shown.

System: microbes
Conditions: for Cloxacillin in New Zealand

- MIC90: 0.5 µg/mL (≈ 1.15 µM)
SMILES: Cc1onc(-c2ccccc2Cl)c1C(=O)N[C@@H]1C(=O)N2[C@@H]1SC(C)(C)[C@@H]2C(=O)O [Cloxacillin, cloxacillin]
